Measured values from US20250170212A1, “COMPOSITIONS AND METHODS OF TREATING AMYOTROPHIC LATERAL SCLEROSIS (ALS) AND RELATED DISORDERS” (BIOINCEPT, LLC, priority 2022, published 2025).

What was measured:
[1] = test system: GFP+ mGRPs, GFAP+ astrocytes, OLIG2+ oligodendrocytes
Description: Paraffin slides of the brain tissue after heated in 1 h in 60° C. were deparaffinized in: 1×10 min. Xylen I, 1×10 min Xylen II, 1×10 min EtOH 100%, 1×10 min EtOH 70%, 1×10 min EtOH 40%, 1×10 min dest. H2O. The target was retrieved in Citrate Buffer+Tween 20 (10 mM, pH=6.0) in a water bath for 20 minutes in 97° C. and then they were let cool down for another 20 minutes. Slides were washed in PBS three times and blocked 1 hour in 10% Goat serum+1% bovine albumin serum. All slides was incubated overnight at 4° C. with a first primary mouse Anti-GFP antibody 1:500 (Abcam Cat #ab1218, RRID: AB_298911). Washed three times with PBS, then secondary antibody Goat Anti-Mouse IgG H&L (Alexa Fluor® 488) in concentration 1:700 (Abcam Cat #ab 150117, RRID: AB_2688012) was applied for 40 min in RT. Then one part of the slides was washed three times in PBS and the second primary Rabbit Anti-GFAP antibody (Abcam Cat #ab7260, RRID: AB_305808) was applied 1:1000, incubated overnight at 4° C. After that the secondary antibody Goat Anti-Rabbit IgG H&L (Alexa Fluor® 594) (Abcam Cat #ab 150080, RRID: AB_2650602) was applied for 40 min RT in concentration 1:700. The second part of the slides was incubated with Rabbit Recombinant Anti-Olig2 antibody (Abcam Cat #ab109186, RRID: AB_10861310) 1:100 incubated overnight in 4° C. Next day the secondary antibody Goat Anti-Rabbit IgG H&L (Alexa Fluor® 594) (Abcam Cat #ab150080, RRID: AB_2650602) was applied for 40 min RT in 1:700 concentration. […] The slides were washed in PBS, mounted with DAKO mounting medium (Agilent Technologies, Santa Clara, CA, United States) and analyzed under Leica DM5500 fluorescent microscopy with LAS X software.

[2] = test system: NeuN positive cells (mature neurons); assay: Immunohistochemistry of mature neurons in brainstem motor nuclei; type: in vivo, mouse; details: facial and hypoglossal motor nuclei; compared to Injury
Description: At the end of experiment, mice were subjected to full body perfusion with 20% sucrose and 10% buffered formalin suitable for histology assays (Sigma Aldrich, St.Louis, MO, USA). Mice were decapitated and incubated in formalin for 24 h. Following the tissues (brain and spinal cord) were isolated, paraffin fixed for further analyses. After brain removal, the tissue was fixed in a formaldehyde solution (4%) for 2-4 hours at RT followed by 4° C. for a total time of 24-48 hours. Fixed tissues were embedded in paraffin and finally sectioned into 7 μm slices. […]
Assessment of neuronal and microglial positive cells were performed in the region of interest (ROI). […] The images were analyzed and reconstructed using Image J (US National Institutes of Health).
All quantifications were performed including the manual cell counts in a blinded manner. The NeuN and Ibal were counted as positive cells in the ROI (see above) as previously reported. The number of cells was determined by unbiased counting of positive cells. […] Differences between groups were analyzed using a repeated measure ANOVA model with a fixed effect for the group, of the time and a random intercept for the mouse. In a second, more explorative, approach for each group the time when the physical activity was first measured below a certain threshold was determined. […]

[3] = whole cross section of the mouse diencephalon

MVRIKPGSANKPSDD [sPIF]
mGRPs progeny: GFP+ astrocytes and oligodendrocytes in brain parenchyma ([1]; diencephalon, day 56): few GFP+ astrocytes and oligodendrocytes in the brain parenchyma
area of astrocytes (GFAP+) [1, 3]: significantly larger area of astrocytes
area of oligodendrocytes (OLIG2+) [1, 3]: larger area of oligodendrocytes
number of mature neurons (NeuN positive cells) [2]: significant protection of neuronal cells
